Test results from ChEMBL document CHEMBL1125043, “Synthesis and biological activity of an acyclic analogue of 5,6,7,8-tetrahydrofolic acid, N-[4-[[3-(2,4-diamino-1,6-dihydro-6-oxo-5- pyrimidinyl)propyl]amino]-benzoyl]-L-glutamic acid” (J Med Chem, 1990).

Tests used:
[1] = tested on: Detroit 98; test: Evaluated in vitro for ability to inhibit the Detroit 98 cell lines; format: functional, cell-based; conditions: Homo sapiens
[2] = tested on: L cells; test: Evaluated in vitro for ability to inhibit the L cell lines.; format: functional, cell-based; conditions: Mus musculus, L929
[3] = target: T1, Bifunctional purine biosynthesis protein ATIC (Mus musculus, UniProt Q9CWJ9); test: Diglutamyl homologue inhibition activity against the AICAR formyltransferase was determined against L cell; format: cell-based
T1 sequence (Q9CWJ9 whole entry): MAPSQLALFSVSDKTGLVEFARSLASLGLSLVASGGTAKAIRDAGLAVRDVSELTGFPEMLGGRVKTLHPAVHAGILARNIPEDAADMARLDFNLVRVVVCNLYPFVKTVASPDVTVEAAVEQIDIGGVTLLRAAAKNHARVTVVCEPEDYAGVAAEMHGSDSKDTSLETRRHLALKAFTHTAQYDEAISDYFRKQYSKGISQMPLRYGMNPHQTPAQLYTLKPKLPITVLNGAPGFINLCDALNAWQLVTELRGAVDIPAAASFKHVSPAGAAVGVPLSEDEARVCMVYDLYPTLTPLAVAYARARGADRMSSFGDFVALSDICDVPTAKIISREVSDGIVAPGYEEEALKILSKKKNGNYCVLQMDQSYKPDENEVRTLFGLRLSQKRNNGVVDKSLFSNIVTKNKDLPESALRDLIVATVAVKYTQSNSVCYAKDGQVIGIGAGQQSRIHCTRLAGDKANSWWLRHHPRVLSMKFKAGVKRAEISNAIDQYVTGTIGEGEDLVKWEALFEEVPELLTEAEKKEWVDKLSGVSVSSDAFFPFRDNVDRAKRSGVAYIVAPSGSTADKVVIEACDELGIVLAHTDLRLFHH

[4] = target: T1, Bifunctional purine biosynthesis protein ATIC; test: Hexaglutamyl homologue inhibition activity against the AICAR formyltransferase was determined against L cell; format: cell-based
[5] = target: T2, Bifunctional purine biosynthesis protein ATIC (Homo sapiens, UniProt P31939); test: Inhibition activity against AICAR formyltransferase determined against MOLT-4; format: cell-based
[6] = target: T1, Bifunctional purine biosynthesis protein ATIC; test: Inhibition activity against AICAR formyltransferase determined against L cell; format: cell-based
[7] = target: T1, Bifunctional purine biosynthesis protein ATIC; test: Triglutamyl homologue inhibition activity against AICAR formyltransferase was determined against L cell; format: cell-based
[8] = target: T2, Bifunctional purine biosynthesis protein ATIC; test: Hexaglutamyl homologue inhibition activity against the AICAR formyltransferase was determined against MOLT-4; format: cell-based
[9] = tested on: L cells; test: Evaluated for reversal of L cell inhibition, where reversal of toxicity was evaluated by the addition of Thymidine + Hypoxanthine; format: functional, Mus musculus, L929
[10] = species on record: Sus scrofa; test: Apparent Km in uM for its activation for Hog Liver Folyl-polyglutamate synthase was determined
[11] = tested on: L cells; test: Evaluated for reversal of L cell inhibition, where reversal of toxicity was evaluated by the addition of Thymidine (20 uM); format: functional, Mus musculus, L929
[12] = tested on: L cells; test: Evaluated for reversal of L cell inhibition, where reversal of toxicity was evaluated by the addition of Leucovorin (0.2 uM); format: functional, Mus musculus, L929
[13] = Ratio of app Km to ral Vmax
[14] = species on record: Sus scrofa; test: Relative Vmax for its activation for Hog Liver Folyl-polyglutamate synthase was determined
[15] = tested on: L cells; test: Evaluated for reversal of L cell inhibition, where reversal of toxicity was evaluated by the addition of Hypoxanthine (37 uM); format: functional, Mus musculus, L929
[16] = target: T3, C-1-tetrahydrofolate synthase, cytoplasmic (Mus musculus) (UniProt Q922D8); test: Evaluated for inhibitory activity on 5,10-Methenyl Tetrahydrofolate Cyclohydrolase(L cell) at folate substrate concentration of 100 uM
T3 sequence (whole entry): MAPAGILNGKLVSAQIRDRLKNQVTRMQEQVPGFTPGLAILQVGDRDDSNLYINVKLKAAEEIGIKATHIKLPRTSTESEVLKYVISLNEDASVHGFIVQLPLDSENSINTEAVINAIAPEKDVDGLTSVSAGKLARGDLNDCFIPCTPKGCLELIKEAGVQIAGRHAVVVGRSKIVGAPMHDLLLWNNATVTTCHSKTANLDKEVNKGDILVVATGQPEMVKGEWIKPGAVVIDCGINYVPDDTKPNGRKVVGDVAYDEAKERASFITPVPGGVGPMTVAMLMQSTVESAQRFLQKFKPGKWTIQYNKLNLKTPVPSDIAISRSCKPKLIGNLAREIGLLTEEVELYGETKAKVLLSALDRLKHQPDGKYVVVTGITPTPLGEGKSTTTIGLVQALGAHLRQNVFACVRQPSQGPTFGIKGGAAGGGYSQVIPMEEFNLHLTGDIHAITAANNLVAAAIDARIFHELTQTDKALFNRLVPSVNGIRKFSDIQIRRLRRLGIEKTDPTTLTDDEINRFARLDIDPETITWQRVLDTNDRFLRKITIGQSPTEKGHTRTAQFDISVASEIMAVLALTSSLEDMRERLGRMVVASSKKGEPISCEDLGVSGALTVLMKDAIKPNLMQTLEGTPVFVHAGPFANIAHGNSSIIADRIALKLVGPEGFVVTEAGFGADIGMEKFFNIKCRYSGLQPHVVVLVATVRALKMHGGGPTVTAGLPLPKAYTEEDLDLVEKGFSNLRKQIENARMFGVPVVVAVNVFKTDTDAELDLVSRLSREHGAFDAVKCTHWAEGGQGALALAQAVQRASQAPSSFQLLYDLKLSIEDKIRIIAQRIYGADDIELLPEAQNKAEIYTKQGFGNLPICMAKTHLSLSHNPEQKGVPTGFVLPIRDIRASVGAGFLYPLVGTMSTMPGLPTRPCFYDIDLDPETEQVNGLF

[17] = target: Methionine synthase (Mus musculus) (UniProt A6H5Y3); test: Evaluated for inhibitory activity on Methionine synthase(L cell) at folate substrate concentration of 100 uM
[18] = target: T4, Serine hydroxymethyltransferase, cytosolic (Mus musculus) (UniProt P50431); test: Evaluated for inhibitory activity on Serine hydroxymethyl transferase (Lcell) at folate substrate concentration of 160 uM
T4 sequence (whole entry): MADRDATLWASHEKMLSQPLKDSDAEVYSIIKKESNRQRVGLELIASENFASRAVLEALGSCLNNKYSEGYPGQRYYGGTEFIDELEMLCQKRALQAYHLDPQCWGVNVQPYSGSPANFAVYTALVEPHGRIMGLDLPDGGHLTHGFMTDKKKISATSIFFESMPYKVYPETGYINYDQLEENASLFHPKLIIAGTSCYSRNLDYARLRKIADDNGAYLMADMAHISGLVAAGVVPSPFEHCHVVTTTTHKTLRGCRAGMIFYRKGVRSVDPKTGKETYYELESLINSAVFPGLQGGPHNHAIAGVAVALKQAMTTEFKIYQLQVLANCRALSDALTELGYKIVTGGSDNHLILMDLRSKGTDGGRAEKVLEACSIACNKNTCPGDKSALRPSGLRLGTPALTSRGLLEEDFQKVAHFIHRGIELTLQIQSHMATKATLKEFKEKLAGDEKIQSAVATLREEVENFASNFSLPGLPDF

[19] = species on record: Mus musculus; test: Evaluated for inhibitory activity on 10-formyltetrahydrofolate synthetase(L cell) at folate substrate concentration of 100 uM
[20] = target: T5, Dihydrofolate reductase (Rattus norvegicus) (UniProt Q920D2); test: Evaluated for inhibitory activity on Dihydrofolate reductase(rat liver) at folate substrate concentration of 45 uM
T5 sequence (whole entry): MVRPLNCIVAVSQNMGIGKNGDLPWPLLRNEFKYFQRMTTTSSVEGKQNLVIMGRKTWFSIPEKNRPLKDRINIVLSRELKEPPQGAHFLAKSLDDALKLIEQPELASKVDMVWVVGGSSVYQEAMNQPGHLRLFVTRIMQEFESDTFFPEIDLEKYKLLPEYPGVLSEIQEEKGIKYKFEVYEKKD

[21] = target: T3, C-1-tetrahydrofolate synthase, cytoplasmic (Mus musculus); test: Evaluated for inhibitory activity on 5,10-Methylene Tetrahydrofolate Cyclohydrolase(L cell) at folate substrate concentration of 100 uM
[22] = Inhibition activity against Glycinamide ribotide formyltransferase against L cell; format: cell-based
[23] = tested on: MCF7; test: Antitumor activity on MCF-7 breast adenocarcinoma cell lines; format: functional, cell-based; conditions: Homo sapiens
[24] = tested on: P388; test: Effect on P388 tumor cell growth in mice. The percentage of increased life span was determined administered 75 mg/kg schedule - QD,days1,5,9; format: functional; conditions: Mus musculus
[25] = tested on: P388; test: Effect on P388 tumor cell growth in mice. The percentage of increased life span was determined administered 10 mg/kg schedule - t.i.d., days 1-4; format: functional; conditions: Mus musculus, P388, intraduodenal
[26] = tested on: CCRF-CEM; test: Antitumor activity on CCRF-CEM T-cell acute lymphoblastic leukemia cell lines; format: functional, cell-based; conditions: Homo sapiens
[27] = Hexaglutamyl homologue inhibition activity against the Glycinamide ribonucleotide transformylase (GAR-TFase) was determined against L cell; format: cell-based, Mus musculus
[28] = tested on: SW480; test: Antitumor activity on SW 480 colon adenocarcinoma cell lines; format: functional, cell-based; conditions: Homo sapiens
[29] = tested on: P388; test: Effect on P388 tumor cell growth in mice. The percentage of increased life span was determined administered 7.5 mg/kg schedule - b.i.d., days 1-3; format: functional; conditions: Mus musculus, P388, intraduodenal
[30] = Inhibition activity against Glycinamide ribonucleotide transformylase (GAR-TFase) against L cell; format: cell-based, Mus musculus
[31] = tested on: P388; test: Effect on P388 tumor cell growth in mice. The percentage of increased life span was determined administered 5 mg/kg schedule - t.i.d., days 1-4; format: functional; conditions: Mus musculus, P388, intraduodenal
[32] = tested on: L cells; test: Evaluated for reversal of L cell inhibition, where reversal of toxicity was evaluated by the addition of Thymidine Hypoxanthine; format: functional, Mus musculus, L929
[33] = Diglutamyl homologue inhibition activity against the Glycinamide ribonucleotide transformylase (GAR-TFase)was determined against L cell; format: cell-based, Mus musculus
[34] = tested on: A-427; test: Antitumor activity on A-427 lung carcinoma cell lines; format: functional, cell-based; conditions: Homo sapiens
[35] = target: T3, C-1-tetrahydrofolate synthase, cytoplasmic (Mus musculus); test: Evaluated for inhibitory activity on 5,10-methylenetetrahydrofolate dehydrogenase(L cell) at folate substrate concentration of 100 uM
[36] = tested on: WiDr; test: Antitumor activity on WiDr colon adenocarcinoma cell lines; format: functional, cell-based; conditions: Homo sapiens
[37] = tested on: MOLT-4; test: Antitumor activity on MOLT-4 T-cell acute lymphoblastic leukemia cell lines; format: functional, cell-based; conditions: Homo sapiens
[38] = Hexaglutamyl homologue inhibition activity against the Glycinamide ribonucleotide transformylase (GAR-TFase) was determined against hog liver; format: tissue-based, Sus scrofa
[39] = tested on: Thymidylate synthase (Bos taurus); test: Evaluated for inhibitory activity on Thymidylate synthase(calf thymus) at folate substrate concentration of 200 uM
[40] = Triglutamyl homologue inhibition activity against Glycinamide ribonucleotide transformylase (GAR-TFase)was determined against L cell; format: cell-based, Mus musculus

T2 sequence (P31939 whole entry): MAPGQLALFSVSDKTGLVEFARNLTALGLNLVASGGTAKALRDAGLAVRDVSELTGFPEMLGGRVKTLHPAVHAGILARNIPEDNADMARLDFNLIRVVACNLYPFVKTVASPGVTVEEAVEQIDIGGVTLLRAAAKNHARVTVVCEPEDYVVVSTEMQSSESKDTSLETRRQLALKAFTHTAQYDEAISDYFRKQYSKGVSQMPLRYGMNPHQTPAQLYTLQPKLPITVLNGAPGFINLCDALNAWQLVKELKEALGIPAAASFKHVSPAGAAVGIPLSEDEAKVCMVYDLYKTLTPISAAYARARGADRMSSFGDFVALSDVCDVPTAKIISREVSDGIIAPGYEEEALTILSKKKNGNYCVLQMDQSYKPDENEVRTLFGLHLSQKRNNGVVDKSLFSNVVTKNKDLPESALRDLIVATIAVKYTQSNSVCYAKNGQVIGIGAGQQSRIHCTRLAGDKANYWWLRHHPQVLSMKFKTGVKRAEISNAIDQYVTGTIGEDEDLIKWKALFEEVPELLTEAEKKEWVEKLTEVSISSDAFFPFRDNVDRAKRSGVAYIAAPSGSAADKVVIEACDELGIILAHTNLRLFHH
Sequence of Methionine synthase (Mus musculus) (A6H5Y3 whole entry): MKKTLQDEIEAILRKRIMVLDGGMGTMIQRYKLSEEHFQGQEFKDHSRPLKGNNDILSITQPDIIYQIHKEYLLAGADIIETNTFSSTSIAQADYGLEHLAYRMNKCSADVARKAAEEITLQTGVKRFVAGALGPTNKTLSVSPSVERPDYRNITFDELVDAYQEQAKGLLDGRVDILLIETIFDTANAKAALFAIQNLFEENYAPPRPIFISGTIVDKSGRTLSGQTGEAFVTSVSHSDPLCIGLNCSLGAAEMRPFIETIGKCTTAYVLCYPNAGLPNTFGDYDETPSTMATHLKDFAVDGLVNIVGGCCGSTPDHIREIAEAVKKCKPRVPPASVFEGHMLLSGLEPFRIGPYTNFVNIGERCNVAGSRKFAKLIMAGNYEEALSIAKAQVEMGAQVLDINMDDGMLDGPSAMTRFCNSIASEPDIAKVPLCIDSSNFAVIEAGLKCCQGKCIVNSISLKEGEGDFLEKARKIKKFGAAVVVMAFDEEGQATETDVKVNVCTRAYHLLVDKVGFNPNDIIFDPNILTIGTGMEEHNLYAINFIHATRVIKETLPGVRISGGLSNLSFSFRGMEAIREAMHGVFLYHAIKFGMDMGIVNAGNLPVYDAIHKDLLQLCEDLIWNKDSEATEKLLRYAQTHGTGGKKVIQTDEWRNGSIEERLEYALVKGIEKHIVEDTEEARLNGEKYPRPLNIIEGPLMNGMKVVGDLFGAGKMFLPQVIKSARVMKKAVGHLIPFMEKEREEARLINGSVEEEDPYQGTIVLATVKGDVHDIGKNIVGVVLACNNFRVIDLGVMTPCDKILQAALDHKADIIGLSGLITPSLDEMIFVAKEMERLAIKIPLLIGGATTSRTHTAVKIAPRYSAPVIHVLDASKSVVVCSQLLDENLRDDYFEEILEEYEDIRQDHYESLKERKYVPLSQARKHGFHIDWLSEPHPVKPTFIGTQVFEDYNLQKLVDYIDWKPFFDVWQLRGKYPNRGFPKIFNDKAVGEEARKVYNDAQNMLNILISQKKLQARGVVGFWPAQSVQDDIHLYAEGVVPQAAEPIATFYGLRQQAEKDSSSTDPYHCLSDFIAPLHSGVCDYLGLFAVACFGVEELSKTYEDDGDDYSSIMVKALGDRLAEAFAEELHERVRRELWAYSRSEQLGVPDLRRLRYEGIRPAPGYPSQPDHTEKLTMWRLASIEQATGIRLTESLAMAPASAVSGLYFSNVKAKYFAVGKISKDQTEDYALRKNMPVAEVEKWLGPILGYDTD

Structure (SMILES): Nc1nc(N)c(CCCNc2ccc(C(=O)NCC(=O)O)cc2)c(O)n1
- IC50 [1]: > 100000 nM
- IC50 [2]: > 100000 nM

Structure (SMILES): Nc1nc(N)c(CCCNc2ccc(C(=O)N[C@@H](CCC(=O)O)C(=O)O)cc2)c(=O)[nH]1
- IC50 [3]: 9400 nM
- IC50 [4]: 700 nM
- IC50 [5]: 94000 nM
- IC50 [6]: 200000 nM
- IC50 [7]: 1900 nM
- IC50 [8]: 700 nM

Structure (SMILES): Nc1nc(N)c2nc(CNc3ccc(C(=O)N[C@@H](CCC(=O)O)C(=O)O)cc3)cnc2n1 [AMINOPTERIN]
- IC50 [1]: 2 nM
- Inhibition [9]: 0%
- IC50 [2]: 2.3 nM
- Km [10]: 24.4 µM
- Inhibition [11]: 68%
- Inhibition [12]: 6%
- Ratio [13]: 5.9
- Relative Vmax [14]: 144%
- Inhibition [15]: 79%

Structure (SMILES): Nc1nc(N)c(CCCN(C=O)c2ccc(C(=O)NC(CCC(=O)O)C(=O)O)cc2)c(O)n1 (stereo not drawn)
- IC50 [1]: 210 nM
- inhibition [16]: 34%
- inhibition [17]: 0%
- inhibition [18]: 13%
- inhibition [19]: 0%
- inhibition [20]: 50%
- inhibition [21]: 0%

Structure (SMILES): Nc1nc(N)c(CCCNc2ccc(C(=O)N[C@@H](CCC(=O)O)C(=O)O)cc2)c(O)n1
- IC50 [22]: 2600 nM
- IC50 [23]: 37 nM
- ILS at 75 mg/kg [24]: 0%
- IC50 [1]: 110 nM
- ILS at 10 mg/kg [25]: 80%
- IC50 [26]: 47 nM
- inhibition [16]: 5%
- inhibition [17]: 0%
- IC50 [27]: 80 nM
- IC50 [28]: 50 nM
- IC50 [2]: 88 nM
- ILS at 7.5 mg/kg [29]: 40%
- inhibition [18]: 7%
- IC50 [30]: 3000 nM
- ILS at 5 mg/kg [31]: 22%
- Km [10]: 6.7 µM
- Inhibition [32]: 0%
- IC50 [33]: 400 nM
- IC50 [34]: 43 nM
- inhibition [35]: 0%
- inhibition [19]: 0%
- inhibition [20]: 0%
- IC50 [36]: 45 nM
- IC50 [37]: 58 nM
- Inhibition [11]: 59%
- IC50 [38]: 260 nM
- inhibition [39]: 0%
- IC50 [40]: 340 nM
- Inhibition [12]: 6%
- Ratio [13]: 14.9
- Relative Vmax [14]: 100%
- Inhibition [15]: 0%

Structure (SMILES): CN(CCCc1c(N)nc(N)nc1O)c1ccc(C(=O)NC(CCC(=O)O)C(=O)O)cc1 (stereo not drawn)
- IC50 [1]: 2000 nM
- IC50 [2]: 280 nM
